# Laboratory results: ChEMBL document CHEMBL1154288, “The discovery and unique pharmacological profile of RO4938581 and RO4882224 as potent and selective GABAA alpha5 inverse agonists for the treatment of cognitive dysfunction” (Bioorg Med Chem Lett, 2009)
# How the values were obtained:
# [1] = biological target: T1, GABA-A receptor; alpha-5/beta-3/gamma-2 (Homo sapiens, UniProt P18507+P28472+P31644); assay: Displacement of [3H]Flumazenil from cloned human GABA alpha-5-beta-3-gamma-2 receptor expressed in HEK293 cells; assay type: cell-based
# T1 sequence (P18507 whole entry): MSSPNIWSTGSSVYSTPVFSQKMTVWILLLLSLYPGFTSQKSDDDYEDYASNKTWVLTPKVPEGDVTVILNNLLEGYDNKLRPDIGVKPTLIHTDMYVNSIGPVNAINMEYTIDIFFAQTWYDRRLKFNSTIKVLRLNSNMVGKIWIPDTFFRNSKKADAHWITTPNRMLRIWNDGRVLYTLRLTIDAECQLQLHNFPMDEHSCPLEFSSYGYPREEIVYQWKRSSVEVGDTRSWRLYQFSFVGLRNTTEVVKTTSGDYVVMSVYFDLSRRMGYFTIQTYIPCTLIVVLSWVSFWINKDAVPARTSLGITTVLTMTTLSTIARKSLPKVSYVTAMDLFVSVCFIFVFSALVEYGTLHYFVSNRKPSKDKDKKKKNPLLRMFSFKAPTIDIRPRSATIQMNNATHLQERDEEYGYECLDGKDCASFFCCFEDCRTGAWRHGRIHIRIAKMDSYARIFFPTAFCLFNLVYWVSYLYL
# T1 sequence (P28472 whole entry): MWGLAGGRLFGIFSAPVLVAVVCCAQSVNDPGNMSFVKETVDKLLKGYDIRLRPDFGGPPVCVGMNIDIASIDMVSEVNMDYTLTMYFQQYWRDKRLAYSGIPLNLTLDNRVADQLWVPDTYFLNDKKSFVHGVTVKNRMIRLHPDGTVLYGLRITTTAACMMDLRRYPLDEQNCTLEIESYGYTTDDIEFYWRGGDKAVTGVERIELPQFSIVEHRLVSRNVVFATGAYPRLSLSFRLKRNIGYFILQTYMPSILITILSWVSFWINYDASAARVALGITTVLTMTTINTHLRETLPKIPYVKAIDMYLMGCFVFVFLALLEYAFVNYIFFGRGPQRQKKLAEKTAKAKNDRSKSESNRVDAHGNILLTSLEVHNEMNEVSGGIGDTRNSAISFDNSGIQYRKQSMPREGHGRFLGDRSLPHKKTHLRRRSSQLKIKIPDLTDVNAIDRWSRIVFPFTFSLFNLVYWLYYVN
# T1 sequence (P31644 whole entry): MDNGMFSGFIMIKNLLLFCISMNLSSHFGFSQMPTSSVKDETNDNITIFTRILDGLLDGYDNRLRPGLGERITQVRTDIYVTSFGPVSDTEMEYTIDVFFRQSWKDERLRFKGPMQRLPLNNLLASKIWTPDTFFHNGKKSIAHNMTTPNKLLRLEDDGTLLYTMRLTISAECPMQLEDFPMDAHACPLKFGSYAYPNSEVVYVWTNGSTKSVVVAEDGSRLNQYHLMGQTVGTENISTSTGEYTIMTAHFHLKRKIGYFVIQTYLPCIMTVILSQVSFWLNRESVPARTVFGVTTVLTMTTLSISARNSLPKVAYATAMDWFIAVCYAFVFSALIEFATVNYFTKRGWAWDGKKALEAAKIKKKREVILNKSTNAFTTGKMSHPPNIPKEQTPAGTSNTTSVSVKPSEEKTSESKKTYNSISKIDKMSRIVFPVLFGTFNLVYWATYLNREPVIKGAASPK
# HEK293 [2] = assay: Selectivity ratio of Ki for cloned human GABA alpha-1-beta-3-gamma-2 receptor expressed in HEK293 cells to Ki for cloned human GABA alpha-5-beta-3-gamma-2 receptor expressed in HEK293 cells; assay type: cell-based
# HEK293 [3] = assay: Selectivity ratio of Ki for cloned human GABA alpha-2-beta-3-gamma-2 receptor expressed in HEK293 cells to Ki for cloned human GABA alpha-5-beta-3-gamma-2 receptor expressed in HEK293 cells; assay type: cell-based
# HEK293 [4] = assay: Selectivity ratio of Ki for cloned human GABA alpha-3-beta-3-gamma-2 receptor expressed in HEK293 cells to Ki for cloned human GABA alpha-5-beta-3-gamma-2 receptor expressed in HEK293 cells; assay type: cell-based
# [5] = biological target: GABA-A receptor; alpha-5/beta-3/gamma-2 (Homo sapiens) (UniProt P18507+P28472+P31644); assay: Inverse agonist activity at human GABA alpha-5-beta-3-gamma-2 receptor expressed in Xenopus laevis oocyts by electrophysiology assay relative to GABA; assay type: functional
# [6] = biological target: GABA A receptor alpha-5/beta-3/gamma-2 (Rattus norvegicus) (UniProt P18508+P19969+P63079); assay: Inverse agonist activity at rat GABA alpha-5-beta-3-gamma-2 receptor expressed in HEK293 cells by electrophysiology assay relative to GABA; assay type: functional, cell-based
# [7] = Selectivity ratio of Ki for cloned human GABA alpha-1-beta-3-gamma-2 receptor expressed in insect SF9 cells to Ki for cloned human GABA alpha-5-beta-3-gamma-2 receptor expressed in insect SF9 cells
# [8] = Selectivity ratio of Ki for cloned human GABA alpha-2-beta-3-gamma-2 receptor expressed in insect SF9 cells to Ki for cloned human GABA alpha-5-beta-3-gamma-2 receptor expressed in insect SF9 cells
# [9] = Selectivity ratio of Ki for cloned human GABA alpha-3-beta-3-gamma-2 receptor expressed in insect SF9 cells to Ki for cloned human GABA alpha-5-beta-3-gamma-2 receptor expressed in insect SF9 cells
SMILES,Ki [1],Ratio Ki (HEK293 [2]),Ratio Ki (HEK293 [3]),Ratio Ki (HEK293 [4]),Efficacy [5],Efficacy [6],Ratio Ki [7],Ratio Ki [8],Ratio Ki [9]
Cc1ncn2c1Cn1ncnc1-c1cc(C(F)(F)F)ccc1-2,18 nM,29,78,29,-32%,–,–,–,–
O=C(Nc1ccc2c(c1)-c1ncnn1Cc1c(Cl)ncn1-2)C1CC1,16 nM,2,6,5,-48%,–,–,–,–
Clc1ccc2c(c1)-c1ncnn1Cc1c(C3CC3)ncn1-2,9.4 nM,6,7,5,–,-21%,–,–,–
c1ccc2c(c1)-c1ncnn1Cc1cncn1-2,–,–,–,–,–,-37%,15,0.05,0.06
Cc1ncn2c1Cn1ncnc1-c1cc(OC(F)(F)F)ccc1-2,50 nM,10,29,24,–,-41%,–,–,–
Cc1ncn2c1Cn1ncnc1-c1cc(F)ccc1-2,3 nM,6,3,4,–,-38%,–,–,–
N#Cc1ccc2c(c1)-c1ncnn1Cc1c(Cl)ncn1-2,2.4 nM,15,16,5,–,-27%,–,–,–
CCCc1ncn2c1Cn1ncnc1-c1cc(Cl)ccc1-2,1.6 nM,3,5,3,–,-35%,–,–,–
CC(=O)Nc1ccc2c(c1)-c1ncnn1Cc1c(Cl)ncn1-2,2.9 nM,14,19,10,–,-34%,–,–,–
Cc1ncn2c1Cn1ncnc1-c1ccccc1-2,2.6 nM,16,6,4,–,-44%,–,–,–
Clc1ncn2c1Cn1ncnc1-c1cc(-n3ccnc3)ccc1-2,13 nM,1,2,1,–,-7%,–,–,–
Cc1cccc(-c2ncn3c2Cn2ncnc2-c2cc(Cl)ccc2-3)n1,31 nM,11,11,8,–,-12%,–,–,–
Clc1ncn2c1Cn1ncnc1-c1cc(NC3CC3)ccc1-2,2.2 nM,10,43,36,–,-37%,–,–,–
CCS(=O)(=O)c1ncn2c1Cn1ncnc1-c1cc(Cl)ccc1-2,215 nM,4,> 15,4,–,-23%,–,–,–
Cc1nc(-c2ncn3c2Cn2ncnc2-c2cc(F)ccc2-3)no1,0.2 nM,3,5,3,–,-12%,–,–,–
Clc1ncn2c1Cn1ncnc1-c1ccccc1-2,0.3 nM,13,5,2,–,-41%,–,–,–
Cc1ccc2c(c1)-c1ncnn1Cc1c(C)ncn1-2,9.2 nM,11,34,23,-37%,–,–,–,–
